Assay results as given in ChEMBL document CHEMBL1152866, “Modulation of gene expression via disruption of NF-kappaB signaling by a bacterial small molecule” (Science, 2008).
Active and inactive are the calls of the source. The calls are words filed in the database; no cut-off is given here.

What was measured:
MEF = assay: Effect on TNF-induced MCP1 mRNA expression in MEF by Northern blot analysis; format: functional, cell-based; settings: Mus musculus
BMDM = assay: Inhibition of LPS-induced RANTES mRNA expression in mouse BMDM up to 3 hrs by Northern blot analysis; format: functional, cell-based

CCCCCCCCCC(=O)CC(=O)N[C@H]1CCOC1=O
Activity (MEF): Active
Activity (BMDM): Dose-dependent effect
